# Measurements as given in PubChem BioAssay AID2060500 (Molecular Pharmacology Branch, DTP, NCI, 2025).
# Tested on: 596521-263-R-J1-PDC complex spheroids, viability % of control
# Experiment: Anticancer human tumor 596521-263-R-J1-PDC patient-derived soft tissue sarcoma cell line growth inhibition [GQUAD]
# Details: for IC50: curve of first compound; for viability, T/C: stronger effect = lower value
# Procedure, shortened: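 Viability of tumor cells grown as complex spheroids with endothelial and stromal cells, exposed to drug combinations. Top concentration at or near clinical Cmax (else 10 microM), diluted in half-log increments.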
# [1] = second compound 0.0316 µM, first compound 0.0316 µM
# [2] = second compound 0.0316 µM, first compound 0.1 µM
# [3] = second compound 0.0316 µM, first compound 0.316 µM
# [4] = second compound 0.0316 µM, first compound 1 µM
# [5] = second compound 0.0316 µM, first compound 3.16 µM
# [6] = second compound 0.0316 µM, first compound 10 µM
# [7] = second compound 0.1 µM, first compound 0.0316 µM
# [8] = second compound 0.1 µM, first compound 0.1 µM
# [9] = second compound 0.1 µM, first compound 0.316 µM
# [10] = second compound 0.1 µM, first compound 1 µM
# [11] = second compound 0.1 µM, first compound 3.16 µM
# [12] = second compound 0.1 µM, first compound 10 µM
# [13] = second compound 0.316 µM, first compound 0.0316 µM
# [14] = second compound 0.316 µM, first compound 0.1 µM
# [15] = second compound 0.316 µM, first compound 0.316 µM
# [16] = second compound 0.316 µM, first compound 1 µM
# [17] = second compound 0.316 µM, first compound 3.16 µM
# [18] = second compound 0.316 µM, first compound 10 µM
# [19] = second compound 1 µM, first compound 0.0316 µM
# [20] = second compound 1 µM, first compound 0.1 µM
# [21] = second compound 1 µM, first compound 0.316 µM
# [22] = second compound 1 µM, first compound 1 µM
# [23] = second compound 1 µM, first compound 3.16 µM
# [24] = second compound 1 µM, first compound 10 µM
# [25] = second compound 3.16 µM, first compound 0.0316 µM
# [26] = second compound 3.16 µM, first compound 0.1 µM
# [27] = second compound 3.16 µM, first compound 0.316 µM
# [28] = second compound 3.16 µM, first compound 1 µM
# [29] = second compound 3.16 µM, first compound 3.16 µM
# [30] = second compound 3.16 µM, first compound 10 µM
# [31] = second compound 10 µM, first compound 0.0316 µM
# [32] = second compound 10 µM, first compound 0.1 µM
# [33] = second compound 10 µM, first compound 0.316 µM
# [34] = second compound 10 µM, first compound 1 µM
# [35] = second compound 10 µM, first compound 3.16 µM
# [36] = second compound 10 µM, first compound 10 µM
# 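Further: spheroids exposed to drugs for 7 days before viability reading.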
# 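Wherever viability, T/C is given: 100% = DMSO vehicle control viability.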
structure (smiles),measurement,setting,value
COc1cc(C2c3cc4c(cc3C(OC3OC5COC(C)OC5C(O)C3O)C3COC(=O)C23)OCO4)cc(OC)c1O (stereo unspecified) + Cc1[nH]c2ccc(F)cc2c1-c1nc2c3cccnc3c3ncccc3c2[nH]1,IC50,second compound 0.0316 µM,5.37 µM
same,IC50,second compound 0.1 µM,> 10 µM
same,IC50,second compound 0.316 µM,> 10 µM
same,IC50,second compound 1 µM,5.42 µM
same,IC50,second compound 3.16 µM,8.31 µM
same,IC50,second compound 10 µM,0.97 µM
same,"viability, T/C",[1],107%
same,"viability, T/C",[2],78.9%
same,"viability, T/C",[3],78.4%
same,"viability, T/C",[4],66.8%
same,"viability, T/C",[5],51.6%
same,"viability, T/C",[6],45.8%
same,"viability, T/C",[7],93%
same,"viability, T/C",[8],86.8%
same,"viability, T/C",[9],79.3%
same,"viability, T/C",[10],66.3%
same,"viability, T/C",[11],58.3%
same,"viability, T/C",[12],53.3%
same,"viability, T/C",[13],93.4%
same,"viability, T/C",[14],104%
same,"viability, T/C",[15],87.3%
same,"viability, T/C",[16],54.1%
same,"viability, T/C",[17],57.9%
same,"viability, T/C",[18],50.3%
same,"viability, T/C",[19],102%
same,"viability, T/C",[20],85.2%
same,"viability, T/C",[21],79.5%
same,"viability, T/C",[22],60.9%
same,"viability, T/C",[23],55.7%
same,"viability, T/C",[24],44.8%
same,"viability, T/C",[25],92.8%
same,"viability, T/C",[26],82%
same,"viability, T/C",[27],79.3%
same,"viability, T/C",[28],60.3%
same,"viability, T/C",[29],63.6%
same,"viability, T/C",[30],46.4%
same,"viability, T/C",[31],67.4%
same,"viability, T/C",[32],64.3%
same,"viability, T/C",[33],65%
same,"viability, T/C",[34],49.2%
same,"viability, T/C",[35],43.9%
same,"viability, T/C",[36],39.5%
COc1ncnc(C2CC2)c1-c1ncc2cnn(Cc3ccc(-c4nc(C(F)(F)F)cn4C(C)C)cc3)c2n1 + CN(C)c1ccc(Nc2c3ccc(NC(=O)CCN4CCCC4)cc3nc3cc(NC(=O)CCN4CCCC4)ccc23)cc1,IC50,second compound 0.0316 µM,> 10 µM
same,IC50,second compound 0.1 µM,> 10 µM
same,IC50,second compound 0.316 µM,> 10 µM
same,IC50,second compound 1 µM,> 10 µM
same,IC50,second compound 3.16 µM,> 10 µM
same,IC50,second compound 10 µM,3.76 µM
same,"viability, T/C",[1],94.8%
same,"viability, T/C",[2],100%
same,"viability, T/C",[3],92.2%
same,"viability, T/C",[4],104%
same,"viability, T/C",[5],90.9%
same,"viability, T/C",[6],97.2%
same,"viability, T/C",[7],103%
same,"viability, T/C",[8],94.7%
same,"viability, T/C",[9],98.4%
same,"viability, T/C",[10],89.8%
same,"viability, T/C",[11],98.6%
same,"viability, T/C",[12],93.5%
same,"viability, T/C",[13],103%
same,"viability, T/C",[14],99.2%
same,"viability, T/C",[15],101%
same,"viability, T/C",[16],106%
same,"viability, T/C",[17],104%
same,"viability, T/C",[18],105%
same,"viability, T/C",[19],95.4%
same,"viability, T/C",[20],92.5%
same,"viability, T/C",[21],93.5%
same,"viability, T/C",[22],81.1%
same,"viability, T/C",[23],108%
same,"viability, T/C",[24],88.3%
same,"viability, T/C",[25],89.9%
same,"viability, T/C",[26],106%
same,"viability, T/C",[27],87.9%
same,"viability, T/C",[28],108%
same,"viability, T/C",[29],86.6%
same,"viability, T/C",[30],72.6%
same,"viability, T/C",[31],63%
same,"viability, T/C",[32],57.7%
same,"viability, T/C",[33],63.8%
same,"viability, T/C",[34],57%
same,"viability, T/C",[35],52%
same,"viability, T/C",[36],38.4%
O=C(c1cc(Cc2n[nH]c(=O)c3ccccc23)ccc1F)N1CCN(C(=O)C2CC2)CC1 + CN(C)c1ccc(Nc2c3ccc(NC(=O)CCN4CCCC4)cc3nc3cc(NC(=O)CCN4CCCC4)ccc23)cc1,IC50,second compound 0.0316 µM,> 10 µM
same,IC50,second compound 0.1 µM,> 10 µM
same,IC50,second compound 0.316 µM,> 10 µM
same,IC50,second compound 1 µM,> 10 µM
same,IC50,second compound 3.16 µM,> 10 µM
same,IC50,second compound 10 µM,> 10 µM
same,"viability, T/C",[1],112%
same,"viability, T/C",[2],106%
same,"viability, T/C",[3],101%
same,"viability, T/C",[4],104%
same,"viability, T/C",[5],86.2%
same,"viability, T/C",[6],68%
same,"viability, T/C",[7],108%
same,"viability, T/C",[8],89.3%
same,"viability, T/C",[9],97.4%
same,"viability, T/C",[10],99%
same,"viability, T/C",[11],88.3%
same,"viability, T/C",[12],67.9%
same,"viability, T/C",[13],114%
same,"viability, T/C",[14],103%
same,"viability, T/C",[15],101%
same,"viability, T/C",[16],103%
same,"viability, T/C",[17],88.5%
same,"viability, T/C",[18],74.3%
same,"viability, T/C",[19],108%
same,"viability, T/C",[20],98.2%
same,"viability, T/C",[21],109%
same,"viability, T/C",[22],99.2%
same,"viability, T/C",[23],94.6%
same,"viability, T/C",[24],69.2%
same,"viability, T/C",[25],110%
same,"viability, T/C",[26],89.6%
same,"viability, T/C",[27],90.8%
same,"viability, T/C",[28],89.9%
same,"viability, T/C",[29],91%
same,"viability, T/C",[30],70.8%
same,"viability, T/C",[31],70.4%
same,"viability, T/C",[32],62.2%
same,"viability, T/C",[33],76.7%
same,"viability, T/C",[34],72.4%
same,"viability, T/C",[35],66.5%
same,"viability, T/C",[36],59.9%
